In the supplement of paper PMC8882468:

Tested on: HCI-019 (organoid from a triple-negative breast cancer xenograft)
Assay: CTG-3D luminescence at 96 h relative to day-0 seeding control (ratio to day 0); higher = more growth / less cytotoxicity; PDxO 3D drug screen, 96 h, CTG-3D normalised to day-0 seeding control.
Settings: 12.5 pM; days in culture: 110

Going from `COc1cc2c(Oc3ccc4[nH]c(C)cc4c3F)ncnc2cc1OCCCN1CCCC1` [cediranib] to `Cc1cc(Nc2ncnc3ccc(NC4=NC(C)(C)CO4)cc23)ccc1Oc1ccn2ncnc2c1` [tucatinib], the “CTG-3D luminescence at 96 h” value rises from 1.88 to 2.14.

Going from `CC(C)n1nc(-c2ccc3oc(N)nc3c2)c2c(N)ncnc21` [sapanisertib] to `C=CCn1c(=O)c2cnc(Nc3ccc(N4CCN(C)CC4)cc3)nc2n1-c1cccc(C(C)(C)O)n1` [adavosertib], the “CTG-3D luminescence at 96 h” value rises from 1.88 to 2.05.

Compared with `C[C@H](NC(=O)CCC(F)(F)F)C(=O)N[C@@H]1C(=O)N(CCO)c2ncccc2-c2ccccc21` [crenigacestat], `O=C(/C=C/c1cccnc1)NCCCCC1CCN(C(=O)c2ccccc2)CC1` [FK866] is higher in “CTG-3D luminescence at 96 h” value: 1.5 for the first, 2.11 for the second.

Going from `C[C@]12CC[C@@H]3c4ccc(O)cc4C[C@@H](CCCCCCCCC[S+]([O-])CCCC(F)(F)C(F)(F)F)[C@H]3[C@@H]1CC[C@@H]2O` (some centres not stated) [fulvestrant] to `O=C(c1ccc(F)c(F)c1Nc1ccc(I)cc1F)N1CC(O)([C@@H]2CCCCN2)C1` [cobimetinib], the “CTG-3D luminescence at 96 h” value falls from 2.08 to 1.61.

`CS(=O)(=O)c1ccc(C(=O)Nc2ccc(Cl)c(-c3ccccn3)c2)c(Cl)c1` [vismodegib] was tested, and the “CTG-3D luminescence at 96 h” value was 1.59.

Same assay, conditions: 12.5 pM; days in culture: 131

First: COc1cc2c(Oc3ccc4[nH]c(C)cc4c3F)ncnc2cc1OCCCN1CCCC1 [cediranib]
Second: Cc1cc(Nc2ncnc3ccc(NC4=NC(C)(C)CO4)cc23)ccc1Oc1ccn2ncnc2c1 [tucatinib]
The “CTG-3D luminescence at 96 h” value of the first is higher: 2.89 for the first, 2.25 for the second.

Compared with `CC(C)n1nc(-c2ccc3oc(N)nc3c2)c2c(N)ncnc21` [sapanisertib], `C=CCn1c(=O)c2cnc(Nc3ccc(N4CCN(C)CC4)cc3)nc2n1-c1cccc(C(C)(C)O)n1` [adavosertib] is higher in “CTG-3D luminescence at 96 h” value: 2.52 for the first, 2.63 for the second.

Going from `C[C@H](NC(=O)CCC(F)(F)F)C(=O)N[C@@H]1C(=O)N(CCO)c2ncccc2-c2ccccc21` [crenigacestat] to `O=C(/C=C/c1cccnc1)NCCCCC1CCN(C(=O)c2ccccc2)CC1` [FK866], the “CTG-3D luminescence at 96 h” value falls from 2.19 to 1.91.

Compared with `C[C@]12CC[C@@H]3c4ccc(O)cc4C[C@@H](CCCCCCCCC[S+]([O-])CCCC(F)(F)C(F)(F)F)[C@H]3[C@@H]1CC[C@@H]2O` (some centres not stated) [fulvestrant], `O=C(c1ccc(F)c(F)c1Nc1ccc(I)cc1F)N1CC(O)([C@@H]2CCCCN2)C1` [cobimetinib] is lower in “CTG-3D luminescence at 96 h” value: 2.86 for the first, 2.19 for the second.

`CS(=O)(=O)c1ccc(C(=O)Nc2ccc(Cl)c(-c3ccccn3)c2)c(Cl)c1` [vismodegib] was tested, and the “CTG-3D luminescence at 96 h” value was 2.17.

Same assay, conditions: 12.5 pM; days in culture: 152

First: COc1cc2c(Oc3ccc4[nH]c(C)cc4c3F)ncnc2cc1OCCCN1CCCC1 [cediranib]
Second: Cc1cc(Nc2ncnc3ccc(NC4=NC(C)(C)CO4)cc23)ccc1Oc1ccn2ncnc2c1 [tucatinib]
The “CTG-3D luminescence at 96 h” value of the first is lower: 2.41 for the first, 3.48 for the second.

Going from `CC(C)n1nc(-c2ccc3oc(N)nc3c2)c2c(N)ncnc21` [sapanisertib] to `C=CCn1c(=O)c2cnc(Nc3ccc(N4CCN(C)CC4)cc3)nc2n1-c1cccc(C(C)(C)O)n1` [adavosertib], the “CTG-3D luminescence at 96 h” value falls from 4.18 to 2.43.

Compared with `C[C@H](NC(=O)CCC(F)(F)F)C(=O)N[C@@H]1C(=O)N(CCO)c2ncccc2-c2ccccc21` [crenigacestat], `O=C(/C=C/c1cccnc1)NCCCCC1CCN(C(=O)c2ccccc2)CC1` [FK866] is lower in “CTG-3D luminescence at 96 h” value: 3.73 for the first, 1.88 for the second.

First: C[C@]12CC[C@@H]3c4ccc(O)cc4C[C@@H](CCCCCCCCC[S+]([O-])CCCC(F)(F)C(F)(F)F)[C@H]3[C@@H]1CC[C@@H]2O (some centres not stated) [fulvestrant]
Second: O=C(c1ccc(F)c(F)c1Nc1ccc(I)cc1F)N1CC(O)([C@@H]2CCCCN2)C1 [cobimetinib]
The “CTG-3D luminescence at 96 h” value of the first is lower: 2.85 for the first, 3.36 for the second.

In the case of `CS(=O)(=O)c1ccc(C(=O)Nc2ccc(Cl)c(-c3ccccn3)c2)c(Cl)c1` [vismodegib], the “CTG-3D luminescence at 96 h” value is reported as 3.1.

Same assay, conditions: 0.00025 µM; days in culture: 110

First: COc1cc2c(Oc3ccc4[nH]c(C)cc4c3F)ncnc2cc1OCCCN1CCCC1 [cediranib]
Second: Cc1cc(Nc2ncnc3ccc(NC4=NC(C)(C)CO4)cc23)ccc1Oc1ccn2ncnc2c1 [tucatinib]
The “CTG-3D luminescence at 96 h” value of the first is higher: 1.82 for the first, 1.65 for the second.

Going from `CC(C)n1nc(-c2ccc3oc(N)nc3c2)c2c(N)ncnc21` [sapanisertib] to `C=CCn1c(=O)c2cnc(Nc3ccc(N4CCN(C)CC4)cc3)nc2n1-c1cccc(C(C)(C)O)n1` [adavosertib], the “CTG-3D luminescence at 96 h” value rises from 1.46 to 1.58.

Compared with `C[C@H](NC(=O)CCC(F)(F)F)C(=O)N[C@@H]1C(=O)N(CCO)c2ncccc2-c2ccccc21` [crenigacestat], `O=C(/C=C/c1cccnc1)NCCCCC1CCN(C(=O)c2ccccc2)CC1` [FK866] is lower in “CTG-3D luminescence at 96 h” value: 1.45 for the first, 0.4 for the second.

Compared with `C[C@]12CC[C@@H]3c4ccc(O)cc4C[C@@H](CCCCCCCCC[S+]([O-])CCCC(F)(F)C(F)(F)F)[C@H]3[C@@H]1CC[C@@H]2O` (some centres not stated) [fulvestrant], `O=C(c1ccc(F)c(F)c1Nc1ccc(I)cc1F)N1CC(O)([C@@H]2CCCCN2)C1` [cobimetinib] is higher in “CTG-3D luminescence at 96 h” value: 1.72 for the first, 2.17 for the second.

`CS(=O)(=O)c1ccc(C(=O)Nc2ccc(Cl)c(-c3ccccn3)c2)c(Cl)c1` [vismodegib] was tested, and the “CTG-3D luminescence at 96 h” value was 1.68.

Same assay, conditions: 0.00025 µM; days in culture: 131

First: COc1cc2c(Oc3ccc4[nH]c(C)cc4c3F)ncnc2cc1OCCCN1CCCC1 [cediranib]
Second: Cc1cc(Nc2ncnc3ccc(NC4=NC(C)(C)CO4)cc23)ccc1Oc1ccn2ncnc2c1 [tucatinib]
The “CTG-3D luminescence at 96 h” value of the first is lower: 3.08 for the first, 3.22 for the second.

Compared with `CC(C)n1nc(-c2ccc3oc(N)nc3c2)c2c(N)ncnc21` [sapanisertib], `C=CCn1c(=O)c2cnc(Nc3ccc(N4CCN(C)CC4)cc3)nc2n1-c1cccc(C(C)(C)O)n1` [adavosertib] is higher in “CTG-3D luminescence at 96 h” value: 3.19 for the first, 3.93 for the second.

Compared with `C[C@H](NC(=O)CCC(F)(F)F)C(=O)N[C@@H]1C(=O)N(CCO)c2ncccc2-c2ccccc21` [crenigacestat], `O=C(/C=C/c1cccnc1)NCCCCC1CCN(C(=O)c2ccccc2)CC1` [FK866] is lower in “CTG-3D luminescence at 96 h” value: 3.56 for the first, 1.42 for the second.

First: C[C@]12CC[C@@H]3c4ccc(O)cc4C[C@@H](CCCCCCCCC[S+]([O-])CCCC(F)(F)C(F)(F)F)[C@H]3[C@@H]1CC[C@@H]2O (some centres not stated) [fulvestrant]
Second: O=C(c1ccc(F)c(F)c1Nc1ccc(I)cc1F)N1CC(O)([C@@H]2CCCCN2)C1 [cobimetinib]
The “CTG-3D luminescence at 96 h” value of the first is higher: 3.69 for the first, 3.62 for the second.

For `CS(=O)(=O)c1ccc(C(=O)Nc2ccc(Cl)c(-c3ccccn3)c2)c(Cl)c1` [vismodegib], the “CTG-3D luminescence at 96 h” value was 2.54.

Same assay, conditions: 0.00025 µM; days in culture: 152

Compared with `COc1cc2c(Oc3ccc4[nH]c(C)cc4c3F)ncnc2cc1OCCCN1CCCC1` [cediranib], `Cc1cc(Nc2ncnc3ccc(NC4=NC(C)(C)CO4)cc23)ccc1Oc1ccn2ncnc2c1` [tucatinib] is higher in “CTG-3D luminescence at 96 h” value: 3.23 for the first, 3.89 for the second.

First: CC(C)n1nc(-c2ccc3oc(N)nc3c2)c2c(N)ncnc21 [sapanisertib]
Second: C=CCn1c(=O)c2cnc(Nc3ccc(N4CCN(C)CC4)cc3)nc2n1-c1cccc(C(C)(C)O)n1 [adavosertib]
The “CTG-3D luminescence at 96 h” value of the first is higher: 3.66 for the first, 2.43 for the second.

Compared with `C[C@H](NC(=O)CCC(F)(F)F)C(=O)N[C@@H]1C(=O)N(CCO)c2ncccc2-c2ccccc21` [crenigacestat], `O=C(/C=C/c1cccnc1)NCCCCC1CCN(C(=O)c2ccccc2)CC1` [FK866] is lower in “CTG-3D luminescence at 96 h” value: 3.39 for the first, 1.08 for the second.

Going from `C[C@]12CC[C@@H]3c4ccc(O)cc4C[C@@H](CCCCCCCCC[S+]([O-])CCCC(F)(F)C(F)(F)F)[C@H]3[C@@H]1CC[C@@H]2O` (some centres not stated) [fulvestrant] to `O=C(c1ccc(F)c(F)c1Nc1ccc(I)cc1F)N1CC(O)([C@@H]2CCCCN2)C1` [cobimetinib], the “CTG-3D luminescence at 96 h” value rises from 3 to 3.14.

With `CS(=O)(=O)c1ccc(C(=O)Nc2ccc(Cl)c(-c3ccccn3)c2)c(Cl)c1` [vismodegib] the “CTG-3D luminescence at 96 h” value was 2.87.

Same assay, conditions: 0.005 µM; days in culture: 110

Going from `COc1cc2c(Oc3ccc4[nH]c(C)cc4c3F)ncnc2cc1OCCCN1CCCC1` [cediranib] to `Cc1cc(Nc2ncnc3ccc(NC4=NC(C)(C)CO4)cc23)ccc1Oc1ccn2ncnc2c1` [tucatinib], the “CTG-3D luminescence at 96 h” value falls from 1.98 to 1.28.

First: CC(C)n1nc(-c2ccc3oc(N)nc3c2)c2c(N)ncnc21 [sapanisertib]
Second: C=CCn1c(=O)c2cnc(Nc3ccc(N4CCN(C)CC4)cc3)nc2n1-c1cccc(C(C)(C)O)n1 [adavosertib]
The “CTG-3D luminescence at 96 h” value of the first is lower: 1.02 for the first, 1.23 for the second.

Compared with `C[C@H](NC(=O)CCC(F)(F)F)C(=O)N[C@@H]1C(=O)N(CCO)c2ncccc2-c2ccccc21` [crenigacestat], `O=C(/C=C/c1cccnc1)NCCCCC1CCN(C(=O)c2ccccc2)CC1` [FK866] is lower in “CTG-3D luminescence at 96 h” value: 1.75 for the first, 0.0804 for the second.

Compared with `C[C@]12CC[C@@H]3c4ccc(O)cc4C[C@@H](CCCCCCCCC[S+]([O-])CCCC(F)(F)C(F)(F)F)[C@H]3[C@@H]1CC[C@@H]2O` (some centres not stated) [fulvestrant], `O=C(c1ccc(F)c(F)c1Nc1ccc(I)cc1F)N1CC(O)([C@@H]2CCCCN2)C1` [cobimetinib] is lower in “CTG-3D luminescence at 96 h” value: 1.89 for the first, 1.42 for the second.

For `CS(=O)(=O)c1ccc(C(=O)Nc2ccc(Cl)c(-c3ccccn3)c2)c(Cl)c1` [vismodegib], the “CTG-3D luminescence at 96 h” value was 1.23.

Same assay, conditions: 0.005 µM; days in culture: 131

Going from `COc1cc2c(Oc3ccc4[nH]c(C)cc4c3F)ncnc2cc1OCCCN1CCCC1` [cediranib] to `Cc1cc(Nc2ncnc3ccc(NC4=NC(C)(C)CO4)cc23)ccc1Oc1ccn2ncnc2c1` [tucatinib], the “CTG-3D luminescence at 96 h” value rises from 3.29 to 3.6.

Compared with `CC(C)n1nc(-c2ccc3oc(N)nc3c2)c2c(N)ncnc21` [sapanisertib], `C=CCn1c(=O)c2cnc(Nc3ccc(N4CCN(C)CC4)cc3)nc2n1-c1cccc(C(C)(C)O)n1` [adavosertib] is lower in “CTG-3D luminescence at 96 h” value: 3.17 for the first, 2.52 for the second.

First: C[C@H](NC(=O)CCC(F)(F)F)C(=O)N[C@@H]1C(=O)N(CCO)c2ncccc2-c2ccccc21 [crenigacestat]
Second: O=C(/C=C/c1cccnc1)NCCCCC1CCN(C(=O)c2ccccc2)CC1 [FK866]
The “CTG-3D luminescence at 96 h” value of the first is higher: 1.97 for the first, 0.669 for the second.

First: C[C@]12CC[C@@H]3c4ccc(O)cc4C[C@@H](CCCCCCCCC[S+]([O-])CCCC(F)(F)C(F)(F)F)[C@H]3[C@@H]1CC[C@@H]2O (some centres not stated) [fulvestrant]
Second: O=C(c1ccc(F)c(F)c1Nc1ccc(I)cc1F)N1CC(O)([C@@H]2CCCCN2)C1 [cobimetinib]
The “CTG-3D luminescence at 96 h” value of the first is lower: 2.72 for the first, 3.36 for the second.

For `CS(=O)(=O)c1ccc(C(=O)Nc2ccc(Cl)c(-c3ccccn3)c2)c(Cl)c1` [vismodegib], the “CTG-3D luminescence at 96 h” value was 3.59.
